According to US9603890B2, “Methods for increasing the selective efficacy of gene therapy using CAR peptide and heparan-sulfate mediated macropinocytosis” (Vascular Biosciences, priority 2012, dated 2017):
Like-named read-outs stand apart in the source and are kept apart here. Where no end group is shown, it is not given here.

Columns and labels:
[1] = molecular target: T1, Heparanase (EC 3.2.1.166) (Homo sapiens, UniProt Q9Y251); conditions: heparan sulfate moiety as substrate; cited from earlier work
T1 sequence (Q9Y251 158-543 limits assumed): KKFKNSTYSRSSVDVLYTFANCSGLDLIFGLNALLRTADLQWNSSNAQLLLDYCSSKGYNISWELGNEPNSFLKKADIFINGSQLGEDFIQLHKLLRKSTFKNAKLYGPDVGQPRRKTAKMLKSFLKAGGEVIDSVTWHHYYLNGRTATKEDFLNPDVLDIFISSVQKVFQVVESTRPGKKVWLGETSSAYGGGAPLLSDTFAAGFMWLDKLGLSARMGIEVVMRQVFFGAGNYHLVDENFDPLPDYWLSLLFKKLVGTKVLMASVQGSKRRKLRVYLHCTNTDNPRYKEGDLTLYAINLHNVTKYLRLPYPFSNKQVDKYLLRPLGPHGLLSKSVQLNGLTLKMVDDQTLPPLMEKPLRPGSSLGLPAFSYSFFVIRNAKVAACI
T1 sequence (Q9Y251 36-109 limits assumed): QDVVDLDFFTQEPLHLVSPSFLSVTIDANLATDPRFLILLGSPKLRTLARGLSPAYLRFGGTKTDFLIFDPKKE

[2] = molecular target: T2, Heparinase I (EC 4.2.2.7) (Pedobacter heparinus, UniProt Q05819); conditions: heparan sulfate moiety as substrate; cited from earlier work
T2 sequence (Q05819 22-384): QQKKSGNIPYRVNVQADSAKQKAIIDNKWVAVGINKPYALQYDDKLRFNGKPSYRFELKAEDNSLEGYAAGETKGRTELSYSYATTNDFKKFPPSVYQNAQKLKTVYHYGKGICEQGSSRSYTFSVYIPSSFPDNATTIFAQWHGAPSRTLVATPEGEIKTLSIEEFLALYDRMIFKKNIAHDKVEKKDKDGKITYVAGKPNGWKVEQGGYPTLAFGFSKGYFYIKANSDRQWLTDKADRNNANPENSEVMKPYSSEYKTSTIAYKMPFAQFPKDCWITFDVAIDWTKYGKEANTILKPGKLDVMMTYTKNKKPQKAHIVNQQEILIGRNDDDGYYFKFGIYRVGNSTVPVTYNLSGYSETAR

[3] = Cell internalization and tissue penetration of truncated CAR versus CAR; assay type: cell-based
[4] = test system: animal models of pulmonary arterial hypertension (PAH); conditions: cited from earlier work
[5] = test system: Chinese hamster ovary cells; conditions: cited from earlier work
[6] = test system: rats with severe occlusive pulmonary hypertension induced by Sugen injection followed by hypoxia; assay: MFN2 adenovirus gene therapy alone or co-administered with CAR peptide in severe occlusive PAH rats; assay type: in vivo, rat
Text: CAR peptide was able to exert its disease-selective adjuvant properties by allowing enhanced viral delivery and uptake of gene product (MFN2) in an animal model of severe occlusive PAH in rats. (A) Figure showing the effect of MFN2 GTx administered alone when compared to control and diseased animal not given MFN2 Gtx. Statistical significance was examined using ANOVA (see Supplement for further statistical information). (B) Change in mitofusion-2 mRNA levels relative to control. […] (D) mPAP (mmHg) levels in Sugen hypoxia rats.
Adenoviruses were used as viral delivery vectors to incorporate cDNA inserts of MFN2 into rats with severe occlusive pulmonary hypertension induced by Sugen injection followed by hypoxia (FIG. 1).
The MFN2 gene encodes the mitofusion-2 protein, which is a mitochondrial membrane protein that participates in mitochondrial fusion. Mitofusion-2 contributes to the maintenance and operation of the mitochondrial network, and is involved in the regulation of vascular smooth muscle cell (VSMC) proliferation. […] Successful delivery and uptake of the MFN2 gene via adenovirus delivery vector into diseased cells results in increased expression of the mitofusion-2 protein, regulation of VSMC proliferation, and a subsequent decrease in disease indicators. […]

## 2-O-sulfo-α-L-iduronic acid-2-deoxy-2-acetamido-α-D-glucopyranosyl [IdoA2S-GlcNS]
[1]
  Heparanase cleavage (EC 3.2.1.166): No
[2]
  Heparinase I cleavage (EC 4.2.2.7): Yes

## CARSKNK [tCAR, truncated form of CAR]
[3]
  potency for cell internalization and tissue penetration versus parent peptide CAR: more potent

## CARSKNKDC (also: cyclic, type not given here) [a 9 amino acid cyclic peptide …]
[4]; CAR co-administered with vasodilators
  increase in selective vasodilation: approximately 2 ×
[4]; in vivo
  increase in co-administered drug concentration: 2 ×
[5]; cells treated with heparinase I and III
  binding of CAR to Chinese hamster ovary cells: greatly reduced
[5]; cells treated with heparinase I
  binding of CAR to Chinese hamster ovary cells: greatly reduced
[6]
  increase in gene therapy transfected gene expression: 7 ×
